The source of these data is ChEMBL document CHEMBL3872259, “Synthesis, characterization, and in vitro SAR evaluation of N,N'-bis(arylmethyl)-C2-alkyl substituted imidazolium salts” (Bioorg Med Chem Lett, 2017).

What is called GI50 is the concentration giving 50% growth inhibition. One may read the IC50 as the point on the concentration scale where inhibition reaches its midpoint. Broadly, the TGI is the concentration giving total growth inhibition. What is called solubility is the dissolved amount per volume that the medium holds.

Structures are written as SMILES.

Data set [1] in a line: Antiproliferative activity against human HOP62 cells assessed as cell growth at 10 uM measured after 48 hrs by sulforhodamine B assay relative to control. Type of data set: functional. To be noted: HOP-62, 48 h, read-out: Activity. (In general: The SRB assay estimates cell density from bound dye.)
The nature of data set [2]: Antiproliferative activity against human EKVX cells assessed as cell growth at 10 uM measured after 48 hrs by sulforhodamine B assay relative to control. Format: functional. The following applies: read-out: Activity.
The nature of data set [3]: Antiproliferative activity against human A549/ATCC cells assessed as cell growth at 10 uM measured after 48 hrs by sulforhodamine B assay relative to control. Type of data set: functional. To be noted: A549, 48 h, read-out: Activity.
Data set [4] can be described thus: Antiproliferative activity against human NCI-H460 cells assessed as reduction in cell viability measured after 72 hrs by MTT assay. The following applies: NCI-H460, 72 h. Type of data set: functional, cell-based. On the technique in general: Tetrazolium dyes change colour on reduction, which living cells bring about.
Data set [5] can be described thus: Antiproliferative activity against human NCI-H1975 cells assessed as reduction in cell viability measured after 72 hrs by MTT assay. Format: functional, cell-based. To be noted: NCI-H1975, 72 h.
The nature of data set [6]: Antiproliferative activity against human HCC827 cells assessed as reduction in cell viability measured after 72 hrs by MTT assay. Format: functional, cell-based. The following applies: HCC827, 72 h.
Data set [7] in a line: Antiproliferative activity against human A549 cells assessed as reduction in cell viability measured after 72 hrs by MTT assay. Format: functional, cell-based. The following applies: A549, 72 h.
Data set [8] can be described thus: Aqueous solubility of the compound. Type of data set: physicochemical. The following applies: buffer.
A short description of data set [9]: Antiproliferative activity against human HOP92 cells assessed as cell growth at 10 uM measured after 48 hrs by sulforhodamine B assay relative to control. Format: functional. To be noted: HOP-92, 48 h, read-out: Activity.
Data set [10] can be described thus: Antiproliferative activity against human NCI-H226 cells assessed as cell growth at 10 uM measured after 48 hrs by sulforhodamine B assay relative to control. Type of data set: functional. To be noted: NCI-H226, 48 h, read-out: Activity.
Data set [11] is described as follows: Antiproliferative activity against human NCI-H23 cells assessed as cell growth at 10 uM measured after 48 hrs by sulforhodamine B assay relative to control. Type of data set: functional. The following applies: NCI-H23, 48 h, read-out: Activity.
The nature of data set [12]: Antiproliferative activity against human NCI-H322M cells assessed as cell growth at 10 uM measured after 48 hrs by sulforhodamine B assay relative to control. Type of data set: functional. To be noted: read-out: Activity.
Data set [13] in a line: Antiproliferative activity against human NCI-H460 cells assessed as cell growth at 10 uM measured after 48 hrs by sulforhodamine B assay relative to control. To be noted: NCI-H460, 48 h, read-out: Activity. Format: functional.
The nature of data set [14]: Growth inhibition of human EKVX cells measured after 48 hrs by sulforhodamine B assay. Format: functional.
Data set [15] in a line: Growth inhibition of human HOP62 cells measured after 48 hrs by sulforhodamine B assay. Type of data set: functional. To be noted: HOP-62, 48 h.
A short description of data set [16]: Growth inhibition of human HOP92 cells measured after 48 hrs by sulforhodamine B assay. Format: functional. To be noted: HOP-92, 48 h.
Data set [17] can be described thus: Growth inhibition of human NCI-H226 cells measured after 48 hrs by sulforhodamine B assay. Format: functional. To be noted: NCI-H226, 48 h.
A short description of data set [18]: Growth inhibition of human NCI-H23 cells measured after 48 hrs by sulforhodamine B assay. Type of data set: functional. The following applies: NCI-H23, 48 h.
A short description of data set [19]: Growth inhibition of human NCI-H322M cells measured after 48 hrs by sulforhodamine B assay. Format: functional.
The nature of data set [20]: Growth inhibition of human NCI-H522 cells measured after 48 hrs by sulforhodamine B assay. Type of data set: functional. The following applies: NCI-H522, 48 h.
Setting [21] is: read-out: LC50 (the source's name).

With `[Br-].c1ccc(-c2n(Cc3ccc4ccccc4c3)cc[n+]2Cc2ccc3ccccc3c2)cc1`, the growth at 10 µM in data set [1] is -44.8%; in data set [2], 3.5%; in [3] it was 12.5%; in data set [9], -69.7%; in data set [10], -9.03%; in data set [11] it was -38.7%. For the same compound, the values for the growth at 10 µM in [12] and in data set [13] were 8.84% and -78.4%, respectively. Also, the GI50 in data set [4] stood at 1370 nM; in data set [7], 1780 nM; in data set [14], 1580 nM; in data set [15] it was 1460 nM; in data set [16] it was 602 nM; in [17] it was 1260 nM. For the same compound, the GI50 in [18] was determined as 775 nM; in data set [19], 1420 nM; in data set [20] it was 1070 nM. The IC50 is 3000 nM in [4], 2000 nM in data set [5], 2000 nM in data set [6] and 4000 nM in data set [7]. Besides, the TGI came out at 2870 nM in [4]; 3520 nM in data set [7]; 3430 nM in [14]; 3230 nM in data set [15]; 2280 nM in data set [16]; 2970 nM in [17]. Further, the results for the TGI in data set [18], in data set [19] and in data set [20] were 2350 nM, 2820 nM and 2580 nM, respectively. The compound further registered a solubility in data set [8] of under 0.5 mM. Besides, the CC50 was 6140 nM in [18] (setting [21]) and 5610 nM in data set [19] (setting [21]).
Regarding `CCCCc1n(Cc2ccc3ccccc3n2)cc[n+]1Cc1ccc2ccccc2c1.[Cl-]`, the IC50 in data set [4] came out at 3000 nM; in [5], 2000 nM; in data set [6] it was 6000 nM; in data set [7], 3000 nM. Further, in data set [8], the solubility was over 10 mM.
Turning to `CCc1n(Cc2ccc3ccccc3c2)cc[n+]1Cc1ccc2ccccc2n1.[Cl-]`, the IC50 in data set [5] was under 1000 nM; in data set [6], 2000 nM. For the same compound, the solubility in data set [8] is listed as over 10 mM.
`[Cl-].c1ccc(-c2n(Cc3ccc4ccccc4n3)cc[n+]2Cc2ccc3ccccc3c2)cc1`: the IC50 in data set [4] is 3000 nM; in [5] it was 2000 nM; in data set [6] it was 6000 nM; in data set [7] it was 4000 nM. This compound gave a solubility in [8] of over 10 mM.
For the compound `[Cl-].c1ccc(-c2n(Cc3ccc4ccccc4n3)cc[n+]2Cc2ccc3ccccc3n2)cc1`, the IC50 was 8000 nM in [4], 2000 nM in [5], 8000 nM in data set [6] and 14000 nM in data set [7]. Also, the solubility in data set [8] is on record as over 80 mM.
For the compound `OCc1n(Cc2ccc3ccccc3c2)cc[n+]1Cc1ccc2ccccc2c1.[Br-]`, the growth at 10 µM in [1] is 75%; in data set [2], 83.3%; in data set [3], 68.6%; in data set [9] it was -2.81%; in data set [10] it was 61.6%; in [11], 67.7%. For the same compound, the growth at 10 µM in data set [12] was found to be 78.9%; in [13], 53.1%. Moreover, the IC50 was 14000 nM in data set [4], 7000 nM in [5], 12000 nM in data set [6] and over 30000 nM in data set [7]. In addition, in data set [8], the solubility was under 0.5 mM.
